Source: patent publication US20150265572A1, “INJECTABLE CANCER COMPOSITIONS” (GENSPERA, INC., priority 2012, published 2015)
Each block holds one molecule with its values, some of them ahead of it. Starred links: 1 amine or outer side, 2 acyl side, 3 side chain; linkers in the order of their positions; H or OH if unused. Non-standard residues stand in square brackets, D forms with d. Residues, ends and D or L forms follow the SMILES beside them. γGlu = O=C(O)[C@H](CCC(=O)[*:2])N[*:1]

What was measured:
[1] = test system: TSU prostate cancer cell line; experiment: LD50 for killing against TSU prostate cancer cell line; format: cell-based, human; conditions: TSU prostate cancer cell line (non-PSMA producing)
Text: The prodrugs are hydrolyzed by PSMA and release the corresponding Asp- or Glu-containing thapsigargin analogs, or the thapsigargin analog itself, and also lack potent cytotoxicity when not metabolized by PSMA. Non-PSMA producing TSU-Pr1 human prostate cancer cell line is exposed to each of the PSMA prodrugs at doses that are approximately 50-times the LD50 for the corresponding free thapsigargin analog.

[2] = Stability to hydrolysis in human plasma; format: in vitro ADME
[3] = Stability to hydrolysis in mouse plasma; format: in vitro ADME
[4] = Stability of peptides in serum; format: in vitro ADME

Molecule: 12ADT-Glu [Composition 12ADT-Glu]
LD50 value for killing [1]: approximately 50 nM

stability to hydrolysis in plasma [2]: completely stable
stability to hydrolysis in plasma [3]: completely stable
Molecule: N[C@@H](CC(=O)O)C(=O)N[C@@H](CCC(=O)N[C@@H](CCC(=O)N[C@@H](CC(=O)O)C(=O)N[C@@H](CCC(=O)O)C(=O)O)C(=O)O)C(=O)O [Asp-Glu*Glu*Asp-Glu] (H-D[γGlu][γGlu]DE-OH; N-terminus and C-terminus assumed)

stability in serum [4]: high stability
Molecule: NC(=O)CC[C@H](NC(=O)[C@H](CC(=O)O)NC(=O)CC[C@H](NC(=O)CC[C@H](NC(=O)CC[C@H](N)C(=O)O)C(=O)O)C(=O)O)C(=O)O [Glu*Glu*Glu*Asp-Gln] ({γGlu-γGlu-γGlu}-Asp-Gln-OH; N-terminus and C-terminus assumed)

stability in serum [4]: high stability
Molecule: N[C@@H](CCC(=O)N[C@@H](CCC(=O)N[C@@H](CCC(=O)N[C@@H](CC(=O)O)C(=O)N[C@@H](CCC(=O)O)C(=O)O)C(=O)O)C(=O)O)C(=O)O [Glu*Glu*Glu*Asp-Glu] ({γGlu-γGlu-γGlu}-Asp-Glu-OH; N-terminus and C-terminus assumed)
